Format in all cases: cell-based
Data set [1] relates to Human STAT3 mRNA. Briefly: Human STAT3 mRNA dose response in T-24 cells, real-time PCR with PPS 199 (Table 18). Particulars: 16 hours, − decrease, + increase relative to untreated control. An excerpt:
The transitional cell bladder carcinoma cell line T-24 was obtained from the American Type Culture Collection (ATCC) (Manassas, Va.). T-24 cells were routinely cultured in complete McCoy's 5A basal media (Gibco/Life Technologies, Gaithersburg, Md.) supplemented with 10% fetal calf serum (Gibco/Life Technologies, Gaithersburg, Md.), penicillin 100 units per mL, and streptomycin 100 micrograms per mL (Gibco/Life Technologies, Gaithersburg, Md.). Cells were routinely passaged by trypsinization and dilution when they reached 90% confluence. Cells were seeded into 96-well plates (Falcon-Primaria #3872) at a density of 7000 cells/well for use in RT-PCR analysis.
Control oligonucleotides used were ISIS 129695 ([…], SEQ ID NO: 391), ISIS 129694 ([…] SEQ ID NO: 392), ISIS 129690 ([…] SEQ ID NO: 393), ISIS 129686 ([…] SEQ ID NO: 394), ISIS 116847 ([…], SEQ ID NO: 395) and ISIS 113529 ([…] SEQ ID NO: 396). These are universal scrambled control oligonucleotides.
(§1) T-24 cells were treated with 18.75, 37.5, 75, or 150 nM of oligonucleotide mixed with 3 ug/mL LIPOFECTIN per 100 nM oligonucleotide as described by other examples herein. Untreated cells served as controls. Following 16 hours of treatment, RNA was prepared from cells for subsequent real-time PCR analysis.
Human STAT3 mRNA expression levels were quantitated by real-time PCR using primer probe set PPS 199 and gene target quantities were normalized using Ribogreen as described in other examples herein. A “−” or “+” designation indicates a decrease or increase of STAT 3 mRNA expression, respectively, relative to untreated control cells.

Data set [2] concerns Human STAT3 mRNA. Briefly: Human STAT3 mRNA dose response in T-24 cells, real-time PCR with PPS 2033 (Table 19). To be noted: 16 hours, − decrease, + increase relative to untreated control. The protocol: The dose-response was repeated in T-24 cells and gene target quantities were measured using a different primer-probe set, called PPS 2033 herein. PPS 2033 comprises probes and primers to human STAT3 were designed to hybridize to a human STAT3 sequence, using published sequence information (incorporated herein as SEQ ID NO: XXX). For PPS 2033 the PCR primers were: forward primer: GAGGCCCGCCCAACA (SEQ ID NO: 397) reverse primer: […] (SEQ ID NO: 398) and the PCR probe was: FAM-CTGCCTAGATCGGC-TAMRA (SEQ ID NO: 399) where FAM is the fluorescent reporter dye and TAMRA is the quencher dye. Gene target quantities obtained by real time RT-PCR are normalized by quantifying total RNA using RiboGreen™ (Molecular Probes, Inc. Eugene, Oreg.). Control oligonucleotides used were ISIS 129695 (SEQ ID NO: 391), ISIS 129694 (SEQ ID NO: 392), ISIS 129690 (SEQ ID NO: 393), ISIS 129686 (SEQ ID NO: 394), ISIS 116847 (SEQ ID NO: 395) and ISIS 113529 (SEQ ID NO: 396).
as §1
Human STAT3 mRNA expression levels were quantitated by real-time PCR using primer probe set PPS 2033 and gene target quantities were normalized using Ribogreen as described in other examples herein. A “−” or “+” designation indicates a decrease or increase of STAT 3 mRNA expression, respectively, relative to untreated control cells.

Data set [3] relates to Human STAT3 mRNA. Briefly: Inhibition of human STAT3 mRNA levels in A549 cells, 75 nM, real-time PCR (Table 13). Particulars: 75 nM oligonucleotide with LIPOFECTIN, real-time PCR PPS 199, percent inhibition relative to untreated control cells, average of 2 experiments. An outline of the steps:
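A549 cells at 65–75% confluency were transfected in duplicate with 75 nM oligonucleotide plus […] Lipofectin for 4–7 h at 37° C and harvested 16–24 h later. STAT3 mRNA was quantified by real-time RT-PCR with primer-probe set PPS 199 and normalized to RiboGreen total RNA. Inhibition is relative to untreated controls.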

Oligonucleotides are written 5' to 3', each unit as a sugar letter and its base; * is a phosphorothioate linkage, no mark a phosphodiester; rarer units and linkages stand in square brackets, end groups in braces. Plain capitals give the bases only. e = 2'-O-(2-methoxyethyl) (MOE); [5mC] = 5-methylcytosine; d = 2'-deoxy (DNA)

With “106747 (GCCCATGATGATTTCAGCAA; all C 5-methyl, all phosphorothioate, sugars by position not given here; further chemistry not fully specified) [compound 106747]”, the “Percent change of STAT3 expression using PPS 199” value (“Percent change … using PPS 199” for short) is on record as −37% in the data set with Human STAT3 mRNA [1] (18.75 nM oligonucleotide), −48% in the data set on Human STAT3 mRNA [1] (37.5 nM oligonucleotide), −71% in the data set on Human STAT3 mRNA [1] (75 nM oligonucleotide) and −84% in the data set on Human STAT3 mRNA [1] (150 nM oligonucleotide). For the same substance, the “Percent change of STAT3 expression using PPS 2033” value (“Percent change … using PPS 2033” below) with Human STAT3 mRNA [2] (18.75 nM oligonucleotide) was −32%; in the data set with Human STAT3 mRNA [2] (37.5 nM oligonucleotide), −48%; in the data set on Human STAT3 mRNA [2] (75 nM oligonucleotide) it was −62%; in the data set on Human STAT3 mRNA [2] (150 nM oligonucleotide) it was −76%.
With “113529 (antisense CTCTTACTGTGCTGTGGACA; all phosphorothioate, sugars by position and methylation of C not given here; 2'-MOE wings and deoxy gap) [compound 113529]”, the “Percent change … using PPS 199” value is “+1%” with Human STAT3 mRNA [1] (18.75 nM oligonucleotide), −1% with Human STAT3 mRNA [1] (37.5 nM oligonucleotide), −11% in the data set with Human STAT3 mRNA [1] (75 nM oligonucleotide) and −26% in the data set with Human STAT3 mRNA [1] (150 nM oligonucleotide). Further, the “Percent change … using PPS 2033” value with Human STAT3 mRNA [2] (18.75 nM oligonucleotide) is “+1%”; in the data set with Human STAT3 mRNA [2] (37.5 nM oligonucleotide), “+12%”; in the data set with Human STAT3 mRNA [2] (75 nM oligonucleotide) it was −11%; in the data set on Human STAT3 mRNA [2] (150 nM oligonucleotide), −24%.
Consider “116847 (antisense CTGCTAGCCTCTGGATTTGA; all phosphorothioate, sugars by position and methylation of C not given here; 2'-MOE wings and deoxy gap) [compound 116847]”, for which the “Percent change … using PPS 199” value in the data set with Human STAT3 mRNA [1] (18.75 nM oligonucleotide) is on record as “+7%”; in the data set with Human STAT3 mRNA [1] (37.5 nM oligonucleotide) it was “+4%”; in the data set with Human STAT3 mRNA [1] (75 nM oligonucleotide), “+8%”; in the data set with Human STAT3 mRNA [1] (150 nM oligonucleotide) it was “+5%”. The “Percent change … using PPS 2033” value in the data set on Human STAT3 mRNA [2] (18.75 nM oligonucleotide) is recorded as “+45%”; in the data set on Human STAT3 mRNA [2] (37.5 nM oligonucleotide), “+33%”; in the data set on Human STAT3 mRNA [2] (75 nM oligonucleotide) it was “+22%”; in the data set on Human STAT3 mRNA [2] (150 nM oligonucleotide), −2%.
As to “129694 (antisense GTACAGTTATGCGCGGTAGA; all phosphorothioate, sugars by position and methylation of C not given here; 2'-MOE wings with deoxy gap) [compound 129694]”, the “Percent change … using PPS 199” value was “+4%” in the data set on Human STAT3 mRNA [1] (18.75 nM oligonucleotide), −3% in the data set with Human STAT3 mRNA [1] (37.5 nM oligonucleotide), −4% in the data set with Human STAT3 mRNA [1] (75 nM oligonucleotide) and −10% in the data set with Human STAT3 mRNA [1] (150 nM oligonucleotide). Also, the “Percent change … using PPS 2033” value with Human STAT3 mRNA [2] (18.75 nM oligonucleotide) is “+19%”; with Human STAT3 mRNA [2] (37.5 nM oligonucleotide), −1%; with Human STAT3 mRNA [2] (75 nM oligonucleotide), “+7%”; with Human STAT3 mRNA [2] (150 nM oligonucleotide) it was “+2%”.
For the substance “129695 (antisense TTCTACCTCGCGCGATTTAC; all phosphorothioate, sugars by position and methylation of C not given here; 2'-MOE wings with deoxy gap) [compound 129695]”, the “Percent change … using PPS 199” value in the data set on Human STAT3 mRNA [1] (18.75 nM oligonucleotide) was “+5%”; in the data set on Human STAT3 mRNA [1] (37.5 nM oligonucleotide), “+2%”; in the data set on Human STAT3 mRNA [1] (75 nM oligonucleotide), “+8%”; with Human STAT3 mRNA [1] (150 nM oligonucleotide), 0%. For the same substance, the “Percent change … using PPS 2033” value in the data set on Human STAT3 mRNA [2] (18.75 nM oligonucleotide) is on record as −4%; with Human STAT3 mRNA [2] (37.5 nM oligonucleotide) it was “+2%”; with Human STAT3 mRNA [2] (75 nM oligonucleotide), “+8%”; in the data set on Human STAT3 mRNA [2] (150 nM oligonucleotide), “+3%”.
For the substance “337247 (antisense eT*eT*eT*eT*eG*d[5mC]*dA*dT*dG*dA*dT*dG*dT*dA*dA*e[5mC]*e[5mC]*eA*e[5mC]*eT) [compound 337247]”, the “% Inhib (inhibition of human STAT 3 mRNA levels)” value (“% Inhib” below) in the data set with Human STAT3 mRNA [3] is given as 87%. The “Percent change … using PPS 199” value with Human STAT3 mRNA [1] (18.75 nM oligonucleotide) is reported as −23%; with Human STAT3 mRNA [1] (37.5 nM oligonucleotide), −43%; in the data set with Human STAT3 mRNA [1] (75 nM oligonucleotide), −62%; in the data set on Human STAT3 mRNA [1] (150 nM oligonucleotide), −75%. Besides, the “Percent change … using PPS 2033” value in the data set on Human STAT3 mRNA [2] (18.75 nM oligonucleotide) was “+17%”; in the data set with Human STAT3 mRNA [2] (37.5 nM oligonucleotide) it was −21%; with Human STAT3 mRNA [2] (75 nM oligonucleotide) it was −53%; in the data set with Human STAT3 mRNA [2] (150 nM oligonucleotide), −69%.
Take “337270 (antisense eT*eT*eG*eG*e[5mC]*dT*dT*d[5mC]*dT*d[5mC]*dA*dA*dG*dA*dT*eA*e[5mC]*e[5mC]*eT*eG) [compound 337270]”: in the data set on Human STAT3 mRNA [3], the “% Inhib” value stood at 89%. Besides, the “Percent change … using PPS 199” value in the data set with Human STAT3 mRNA [1] (18.75 nM oligonucleotide) is given as −29%; in the data set with Human STAT3 mRNA [1] (37.5 nM oligonucleotide), −41%; with Human STAT3 mRNA [1] (75 nM oligonucleotide), −67%; with Human STAT3 mRNA [1] (150 nM oligonucleotide), −87%. Also, the “Percent change … using PPS 2033” value with Human STAT3 mRNA [2] (18.75 nM oligonucleotide) is −16%; in the data set on Human STAT3 mRNA [2] (37.5 nM oligonucleotide) it was −27%; with Human STAT3 mRNA [2] (75 nM oligonucleotide), −67%; in the data set with Human STAT3 mRNA [2] (150 nM oligonucleotide) it was −87%.
“337276 (antisense e[5mC]*eT*eG*eG*eA*dG*dA*dT*dT*d[5mC]*dT*d[5mC]*dT*dA*d[5mC]*e[5mC]*eA*e[5mC]*eT*eT) [compound 337276]”: the “% Inhib” value in the data set with Human STAT3 mRNA [3] was 91%. For the same substance, the “Percent change … using PPS 199” value in the data set with Human STAT3 mRNA [1] (18.75 nM oligonucleotide) is reported as −40%; in the data set on Human STAT3 mRNA [1] (37.5 nM oligonucleotide) it was −61%; in the data set with Human STAT3 mRNA [1] (75 nM oligonucleotide), −76%; in the data set with Human STAT3 mRNA [1] (150 nM oligonucleotide), −81%. Moreover, the “Percent change … using PPS 2033” value is reported as −34% in the data set with Human STAT3 mRNA [2] (18.75 nM oligonucleotide), −58% in the data set on Human STAT3 mRNA [2] (37.5 nM oligonucleotide), −75% with Human STAT3 mRNA [2] (75 nM oligonucleotide) and −81% with Human STAT3 mRNA [2] (150 nM oligonucleotide).
In the case of “337379 (antisense eG*eT*eA*eT*eG*dT*dA*dG*d[5mC]*dT*dA*dT*dA*dG*dG*eT*eG*eG*e[5mC]*e[5mC]) [compound 337379]”, the “% Inhib” value in the data set on Human STAT3 mRNA [3] was determined as 71%.
Still for that read-out and setting: for “337380 (antisense eG*e[5mC]*eA*eA*eT*dG*d[5mC]*d[5mC]*dA*dG*dG*dA*dG*dT*dA*eT*eG*eT*eA*eG) [compound 337380]” the value was 83%; for “337381 (antisense eT*eT*eA*eA*eA*dA*dA*dG*dT*dG*d[5mC]*dA*dA*dT*dG*e[5mC]*e[5mC]*eA*eG*eG) [compound 337381]”, 86%.
Same read-out and setting: next, “337382 (antisense eG*eG*e[5mC]*eT*eT*dA*dG*dA*dT*dA*dG*dT*d[5mC]*d[5mC]*dT*eA*eT*e[5mC]*eT*eT) [compound 337382]”: 84%; “337383 (antisense eT*eA*eA*eA*eA*dA*dG*dA*dA*dA*d[5mC]*d[5mC]*dT*dA*dG*eG*eG*e[5mC]*eT*eT) [compound 337383]”: 81%; “337385 (antisense eT*eT*eA*eA*eG*dT*dT*dT*d[5mC]*dT*dT*dA*dA*dA*dT*eA*e[5mC]*eA*eG*eA) [compound 337385]”: 70%.
